Data published in patent US20090170851A1, “Chroman Compounds” (priority 2005, published 2009).

SMILES	melting point [°C]
CCC(=O)N1CCN(c2ccc(NC(=O)C3CCc4cc(F)cc(N5CCN(C)CC5)c4O3)cc2)CC1 (stereo not drawn) [Example 32, 6-fluoro-8-(4-methylpiperazin-1-yl)-N-(4-(4-proprionyl-piperazin-1-yl)phenyl)chroman-2-carboxamide]	160 to 165
COc1cc2c(c(N3CCN(C)CC3)c1)OC(C(=O)Nc1ccc(N3CCN(C)CC3)cc1)CC2 (stereo not drawn) [Example 35, 6-methoxy-8-(4-methylpiperazin-1-yl)-N-(4-(4-methylpiperazin-1-yl)phenyl)chroman-2-carboxamide]	180 to 190
CN1CCN(c2ccc(NC(=O)C3CCc4cc(F)cc(N5CCN(C)CC5)c4O3)cc2)CC1 (stereo not drawn) [Example 41, 6-fluoro-8-(4-methylpiperazin-1-yl)-N-(4-(4-methylpiperazin-1-yl)phenyl)chroman-2-carboxamide]	150 to 160
